Experimental data as given in PubChem BioAssay (NCI).
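GI50 is the concentration that inhibits growth by half. TGI: concentration producing complete growth inhibition.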

Key:
Assay in all cases: NCI-60 cell line screen, 384-well format
MOLT-4 leukemia = tested on: MOLT-4 leukemia
EKVX NSCLC = tested on: EKVX NSCLC
NCI-H322M lung = tested on: NCI-H322M lung
A549 NSCLC = tested on: A549 NSCLC
HS 578T breast = tested on: HS 578T breast
HL-60(TB) leukemia = tested on: HL-60(TB) leukemia
LOX IMVI melanoma = tested on: LOX IMVI melanoma
T-47D breast = tested on: T-47D breast
OVCAR-8 ovarian = tested on: OVCAR-8 ovarian
PC-3 prostate = tested on: PC-3 prostate
ACHN renal = tested on: ACHN renal
MCF7 breast = tested on: MCF7 breast
NCI-H522 lung = tested on: NCI-H522 lung
M14 melanoma = tested on: M14 melanoma
786-0 renal = tested on: 786-0 renal
SK-MEL-28 melanoma = tested on: SK-MEL-28 melanoma
NCI/ADR-RES ovarian = tested on: NCI/ADR-RES ovarian
SK-MEL-5 melanoma = tested on: SK-MEL-5 melanoma
HCT-116 colon = tested on: HCT-116 colon
SNB-75 CNS = tested on: SNB-75 CNS
NCI-H23 lung = tested on: NCI-H23 lung
K-562 leukemia = tested on: K-562 leukemia
HCT-15 colon = tested on: HCT-15 colon
HOP-92 NSCLC = tested on: HOP-92 NSCLC
CAKI-1 renal = tested on: CAKI-1 renal
DU-145 prostate = tested on: DU-145 prostate
TK-10 renal = tested on: TK-10 renal
HCC-2998 colon = tested on: HCC-2998 colon
KM12 colon = tested on: KM12 colon
RPMI-8226 leukemia = tested on: RPMI-8226 leukemia
HT29 colon = tested on: HT29 colon
SN12C renal = tested on: SN12C renal
MALME-3M melanoma = tested on: MALME-3M melanoma
SK-OV-3 ovarian = tested on: SK-OV-3 ovarian
CCRF-CEM leukemia = tested on: CCRF-CEM leukemia
SK-MEL-2 melanoma = tested on: SK-MEL-2 melanoma
SF-539 CNS = tested on: SF-539 CNS
SNB-19 CNS = tested on: SNB-19 CNS
OVCAR-5 ovarian = tested on: OVCAR-5 ovarian
UACC-257 melanoma = tested on: UACC-257 melanoma
UACC-62 melanoma = tested on: UACC-62 melanoma
IGROV1 ovarian = tested on: IGROV1 ovarian
SW-620 colon = tested on: SW-620 colon
NCI-H226 lung = tested on: NCI-H226 lung
OVCAR-4 ovarian = tested on: OVCAR-4 ovarian
SR leukemia = tested on: SR leukemia
SF-268 CNS = tested on: SF-268 CNS
MDA-MB-231 breast = tested on: MDA-MB-231 breast
COLO 205 colon = tested on: COLO 205 colon
OVCAR-3 ovarian = tested on: OVCAR-3 ovarian
A498 renal = tested on: A498 renal
NCI-H460 NSCLC = tested on: NCI-H460 NSCLC

Structure (SMILES): CN(C)CCN(C)CC(C)(C)C(=O)/C=C/c1ccc(Cl)cc1
- GI50 (MOLT-4 leukemia): 1.76 µM
- TGI (MOLT-4 leukemia): 3.2 µM
- GI50 (EKVX NSCLC): 2.14 µM
- TGI (EKVX NSCLC): 5.07 µM
- GI50 (NCI-H322M lung): 3.11 µM
- TGI (NCI-H322M lung): 7.72 µM
- GI50 (A549 NSCLC): 3.3 µM
- TGI (A549 NSCLC): 11.1 µM
- GI50 (HS 578T breast): 2.55 µM
- TGI (HS 578T breast): 6.02 µM
- GI50 (HL-60(TB) leukemia): 1.94 µM
- TGI (HL-60(TB) leukemia): 3.37 µM
- GI50 (LOX IMVI melanoma): 0.764 µM
- TGI (LOX IMVI melanoma): 2.12 µM
- GI50 (T-47D breast): 17.9 µM
- TGI (T-47D breast): 31.9 µM
- GI50 (OVCAR-8 ovarian): 2.24 µM
- TGI (OVCAR-8 ovarian): 4.8 µM
- GI50 (PC-3 prostate): 2.62 µM
- TGI (PC-3 prostate): 5.93 µM
- GI50 (ACHN renal): 2.02 µM
- TGI (ACHN renal): 7.29 µM
- GI50 (MCF7 breast): 17.2 µM
- TGI (MCF7 breast): 31.2 µM
- GI50 (NCI-H522 lung): 1.34 µM
- TGI (NCI-H522 lung): 2.77 µM
- GI50 (M14 melanoma): 2.07 µM
- TGI (M14 melanoma): 4.06 µM
- GI50 ([…]-0 renal): 2.91 µM
- TGI (786-0 renal): 9.33 µM
- GI50 (SK-MEL-28 melanoma): 3.06 µM
- TGI (SK-MEL-28 melanoma): 10.2 µM
- GI50 (NCI/ADR-RES ovarian): 2.06 µM
- TGI (NCI/ADR-RES ovarian): 3.98 µM
- GI50 (SK-MEL-5 melanoma): 1.9 µM
- TGI (SK-MEL-5 melanoma): 4.08 µM
- GI50 (HCT-116 colon): 2 µM
- TGI (HCT-116 colon): 4.18 µM
- GI50 (SNB-75 CNS): 2.91 µM
- TGI (SNB-75 CNS): 7.32 µM
- GI50 (NCI-H23 lung): 5.84 µM
- TGI (NCI-H23 lung): 18.2 µM
- GI50 (K-562 leukemia): 1.72 µM
- TGI (K-562 leukemia): 3.44 µM
- GI50 (HCT-15 colon): 5.08 µM
- TGI (HCT-15 colon): 17.8 µM
- GI50 (HOP-92 NSCLC): 2.09 µM
- TGI (HOP-92 NSCLC): 4.65 µM
- GI50 (CAKI-1 renal): 2.92 µM
- TGI (CAKI-1 renal): 12 µM
- GI50 (DU-145 prostate): 3.22 µM
- TGI (DU-145 prostate): 8.86 µM
- GI50 (TK-10 renal): 2.44 µM
- TGI (TK-10 renal): 6.06 µM
- GI50 (HCC-2998 colon): 4.45 µM
- TGI (HCC-2998 colon): 13.7 µM
- GI50 (KM12 colon): 2.45 µM
- TGI (KM12 colon): 5.05 µM
- GI50 (RPMI-8226 leukemia): 1.71 µM
- TGI (RPMI-8226 leukemia): 3.17 µM
- GI50 (HT29 colon): 3.26 µM
- TGI (HT29 colon): 11.8 µM
- GI50 (SN12C renal): 2.09 µM
- TGI (SN12C renal): 5.98 µM
- GI50 (MALME-3M melanoma): 4.76 µM
- TGI (MALME-3M melanoma): 14.6 µM
- GI50 (SK-OV-3 ovarian): 2.24 µM
- TGI (SK-OV-3 ovarian): 5.95 µM
- GI50 (CCRF-CEM leukemia): 1.68 µM
- TGI (CCRF-CEM leukemia): 3.05 µM
- GI50 (SK-MEL-2 melanoma): 1.55 µM
- TGI (SK-MEL-2 melanoma): 3.32 µM
- GI50 (SF-539 CNS): 10.5 µM
- TGI (SF-539 CNS): 22.4 µM
- GI50 (SNB-19 CNS): 2.93 µM
- TGI (SNB-19 CNS): 9.62 µM
- GI50 (OVCAR-5 ovarian): 7.14 µM
- TGI (OVCAR-5 ovarian): 19.7 µM
- GI50 (UACC-257 melanoma): 2.36 µM
- TGI (UACC-257 melanoma): 4.96 µM
- GI50 (UACC-62 melanoma): 1.91 µM
- TGI (UACC-62 melanoma): 3.75 µM
- GI50 (IGROV1 ovarian): 2.53 µM
- TGI (IGROV1 ovarian): 6.1 µM
- GI50 (SW-620 colon): 2.09 µM
- TGI (SW-620 colon): 4.45 µM
- GI50 (NCI-H226 lung): 5.39 µM
- TGI (NCI-H226 lung): 16.2 µM
- GI50 (OVCAR-4 ovarian): 2.37 µM
- TGI (OVCAR-4 ovarian): 5.73 µM
- GI50 (SR leukemia): 1.42 µM
- TGI (SR leukemia): 2.73 µM
- GI50 (SF-268 CNS): 2.39 µM
- TGI (SF-268 CNS): 5.29 µM
- GI50 (MDA-MB-231 breast): 3.1 µM
- TGI (MDA-MB-231 breast): 8.03 µM
- GI50 (COLO 205 colon): 5.88 µM
- TGI (COLO 205 colon): 17.1 µM
- GI50 (OVCAR-3 ovarian): 1.75 µM
- TGI (OVCAR-3 ovarian): 4.03 µM
- GI50 (A498 renal): 2.78 µM
- TGI (A498 renal): 7.47 µM
- GI50 (NCI-H460 NSCLC): 2.03 µM
- TGI (NCI-H460 NSCLC): 4.12 µM
